Here are results for twelve compounds from PubChem BioAssay (NCI).

Some test systems named below: NCI-H460 lung; HT29 colon; SF-268 CNS; SK-OV-3 ovarian; T-47D breast; EKVX NSCLC; DU-145 prostate; NCI-H23 lung; SN12C renal; K-562 leukemia; HCC-2998 colon; HOP-92 NSCLC; SK-MEL-2 melanoma; NCI/ADR-RES ovarian; UO-31 renal; OVCAR-8 ovarian; ACHN renal; NCI-H522 lung; HL-60(TB) leukemia.
Holding throughout (experiment): NCI tumour cell line growth inhibition, 48 h

Structures are written as SMILES.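 Method: 48-hour compound exposure of cells in 96-well plates, five concentrations, linear interpolation of endpoints. TGI: total growth inhibition.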 Where only a bound is given, the exact number is not on record here.

Regarding `O=C(CCc1cc(O)cc(O)c1)NCCc1cc(O)cc(O)c1`, the TGI in the test with NCI-H460 lung, in the test on HT29 colon, with SF-268 CNS, with SK-OV-3 ovarian, in the test with T-47D breast and with EKVX NSCLC was over 100 µM throughout. The TGI in the test with DU-145 prostate, with NCI-H23 lung, with SN12C renal, in the test with K-562 leukemia, with HCC-2998 colon and with HOP-92 NSCLC was over 100 µM throughout. The TGI with SK-MEL-2 melanoma, in the test with NCI/ADR-RES ovarian, in the test on UO-31 renal, in the test with OVCAR-8 ovarian, in the test on ACHN renal and with NCI-H522 lung was over 100 µM each time.
Take `CC(=O)Nc1ccc2cc(C)c(=O)[nH]c2n1`: the TGI in the test with NCI-H460 lung, in the test on HT29 colon, with SF-268 CNS, in the test with SK-OV-3 ovarian, in the test with T-47D breast and in the test with EKVX NSCLC was over 100 µM each time. Also, the TGI in the test with DU-145 prostate, in the test with NCI-H23 lung, in the test with SN12C renal, in the test on K-562 leukemia, in the test with HOP-92 NSCLC and in the test on HL-60(TB) leukemia was over 100 µM each time. In addition, the TGI in the test with SK-MEL-2 melanoma, in the test on NCI/ADR-RES ovarian, in the test with UO-31 renal, with OVCAR-8 ovarian, in the test with ACHN renal and in the test on NCI-H522 lung was over 100 µM each time.
For `CC(C)C[C@H]1[C@@H](OCc2ccccc2)COS(=O)N1[C@H](C)c1ccccc1` (some centres undefined), the TGI was 47.8 µM in the test with NCI-H460 lung; 49.3 µM in the test with HT29 colon; over 100 µM in the test on SF-268 CNS; 78 µM in the test with SK-OV-3 ovarian; over 100 µM in the test with T-47D breast; over 100 µM with EKVX NSCLC. Further, the TGI in the test with DU-145 prostate is over 100 µM; in the test with NCI-H23 lung, over 100 µM; with SN12C renal, 40.1 µM; with K-562 leukemia, 35.9 µM; in the test on HOP-92 NSCLC it was over 100 µM; in the test on HL-60(TB) leukemia, 51.7 µM. For the same compound, the TGI in the test with SK-MEL-2 melanoma is 36.1 µM; in the test on NCI/ADR-RES ovarian, over 100 µM; with UO-31 renal, over 100 µM; with OVCAR-8 ovarian, over 100 µM; with ACHN renal it was over 100 µM; with NCI-H522 lung, 30.4 µM.
Consider `CC(C)(C)[Si](C)(C)OC1/C(=C/C#N)C(n2ccc(=O)[nH]c2=O)OC1CO` (centres undefined), for which the TGI in the test with NCI-H460 lung, in the test with HT29 colon, in the test with SF-268 CNS, in the test with SK-OV-3 ovarian, in the test on T-47D breast and in the test on DU-145 prostate was over 100 µM throughout. Further, the TGI in the test with NCI-H23 lung, with K-562 leukemia, in the test on HOP-92 NSCLC, with SK-MEL-2 melanoma, in the test on NCI/ADR-RES ovarian and in the test on UO-31 renal was over 100 µM throughout. Further, the TGI with OVCAR-8 ovarian, with ACHN renal and with NCI-H522 lung was over 100 µM in each case.
Take `Nc1nc2c(ncn2Cc2ccc(CO)cc2)c(=O)[nH]1`: the TGI with NCI-H460 lung, in the test on HT29 colon, in the test on SF-268 CNS, in the test with SK-OV-3 ovarian, in the test with T-47D breast and with EKVX NSCLC was over 100 µM in each case. Also, the TGI in the test with DU-145 prostate, with NCI-H23 lung, in the test on SN12C renal, in the test on K-562 leukemia, in the test with HOP-92 NSCLC and in the test with HL-60(TB) leukemia was over 100 µM each time. Moreover, the TGI in the test on SK-MEL-2 melanoma, in the test on NCI/ADR-RES ovarian, in the test on UO-31 renal, in the test with OVCAR-8 ovarian, with ACHN renal and in the test with NCI-H522 lung was over 100 µM throughout.
Turning to `O=C(/C=C/C=C/c1ccccc1)c1ccc2c(c1)CCCC2`, the TGI is over 100 µM in the test on HT29 colon; 42.6 µM in the test on SF-268 CNS; over 100 µM with SK-OV-3 ovarian; 93.9 µM with T-47D breast; over 100 µM in the test with EKVX NSCLC; 92.3 µM in the test with DU-145 prostate. Also, the TGI was over 100 µM in the test on NCI-H23 lung; over 100 µM in the test with SN12C renal; over 100 µM in the test with K-562 leukemia; 63.3 µM in the test with HCC-2998 colon; 89.9 µM with HOP-92 NSCLC; over 100 µM in the test on SK-MEL-2 melanoma. Also, the TGI with NCI/ADR-RES ovarian is 65.8 µM; in the test on UO-31 renal it was over 100 µM; in the test with OVCAR-8 ovarian it was over 100 µM; in the test on ACHN renal it was over 100 µM; with NCI-H522 lung, 37.7 µM.
Take `Cc1cn(CCCCCOC(=O)NC(CCCN=C(N)N)C(=O)O)c(=O)[nH]c1=O` (centres undefined): the TGI with NCI-H460 lung was over 100 µM; with HT29 colon, 60.1 µM; in the test on SF-268 CNS, over 100 µM; in the test with SK-OV-3 ovarian, over 100 µM; with T-47D breast, over 100 µM; with EKVX NSCLC, over 100 µM. The TGI with DU-145 prostate, with NCI-H23 lung, with SN12C renal, with K-562 leukemia, in the test on HCC-2998 colon and with HOP-92 NSCLC was over 100 µM throughout. In addition, the TGI with HL-60(TB) leukemia, in the test with SK-MEL-2 melanoma, with NCI/ADR-RES ovarian, in the test with UO-31 renal, in the test with OVCAR-8 ovarian and in the test with ACHN renal was over 100 µM throughout.
In the case of `COc1ccc(N2C(=O)CS(=O)(=O)C2c2cccc(Oc3ccccc3)c2)cc1` (centres undefined), the TGI with NCI-H460 lung is 8.03 µM; in the test on HT29 colon, 50.9 µM; with SF-268 CNS it was 38.4 µM; in the test on SK-OV-3 ovarian it was over 100 µM; in the test on T-47D breast it was over 100 µM; in the test on EKVX NSCLC it was 47.8 µM. The TGI is over 100 µM in the test on DU-145 prostate; over 100 µM in the test with NCI-H23 lung; 21.4 µM in the test on SN12C renal; 8.44 µM in the test with K-562 leukemia; 72.1 µM in the test with HOP-92 NSCLC; over 100 µM in the test on HL-60(TB) leukemia. Besides, the TGI in the test on SK-MEL-2 melanoma was determined as 15.9 µM; with NCI/ADR-RES ovarian it was 15.4 µM; with UO-31 renal, 71.3 µM; with OVCAR-8 ovarian, 95.7 µM; with ACHN renal, 32.8 µM; with NCI-H522 lung, 13.8 µM.
For `CC(C)(C)c1cc(C(CO)OCCOCCO)cc(C(C)(C)C)c1O` (centres undefined), the TGI with HT29 colon, in the test with SF-268 CNS, in the test on SK-OV-3 ovarian, with T-47D breast, in the test with EKVX NSCLC and with DU-145 prostate was over 100 µM each time. Further, the TGI in the test on NCI-H23 lung, with SN12C renal, in the test with K-562 leukemia, with HOP-92 NSCLC, with SK-MEL-2 melanoma and in the test with NCI/ADR-RES ovarian was over 100 µM each time. In addition, the TGI in the test with UO-31 renal, in the test with OVCAR-8 ovarian, in the test on ACHN renal and with NCI-H522 lung was over 100 µM throughout.
On to `O=C(NC(CO)Cc1ccc(Oc2cc(CC(CO)NC(=O)OCc3ccccc3)ccc2OC(=O)OCc2ccccc2)cc1)OCc1ccccc1` (centres undefined), for which the TGI was 38.9 µM with NCI-H460 lung; over 100 µM in the test on HT29 colon; 88.9 µM with SF-268 CNS; 69.8 µM with SK-OV-3 ovarian; 23.1 µM in the test on T-47D breast; 47.8 µM with EKVX NSCLC. Besides, the TGI in the test with DU-145 prostate is 51.3 µM; in the test with NCI-H23 lung, 36.1 µM; with SN12C renal, over 100 µM; in the test with K-562 leukemia, 46.7 µM; with HCC-2998 colon, 30.5 µM; in the test on HOP-92 NSCLC it was 54.3 µM. The TGI with HL-60(TB) leukemia is 41.7 µM; in the test with SK-MEL-2 melanoma, 58.3 µM; with NCI/ADR-RES ovarian, over 100 µM; with UO-31 renal, over 100 µM; in the test on OVCAR-8 ovarian, 40.6 µM; in the test with ACHN renal, 62.7 µM.
On to `O=C(NS(=O)(=O)OCC(Cl)(Cl)Cl)SCCC(F)(F)C(F)(F)C(F)(F)C(F)(F)C(F)(F)C(F)(F)F`, for which the TGI in the test on NCI-H460 lung is 41.5 µM; in the test with HT29 colon, 35.6 µM; in the test with SF-268 CNS, over 100 µM; with SK-OV-3 ovarian, 32.1 µM; with T-47D breast it was 98.4 µM; in the test with EKVX NSCLC, 35.5 µM. Also, the TGI with DU-145 prostate is over 100 µM; with NCI-H23 lung, 40.6 µM; in the test with SN12C renal it was over 100 µM; in the test with K-562 leukemia it was over 100 µM; in the test on HOP-92 NSCLC, 23.4 µM; in the test with HL-60(TB) leukemia, 51.2 µM. Moreover, the TGI with SK-MEL-2 melanoma is 66.8 µM; in the test with NCI/ADR-RES ovarian it was 48.1 µM; with UO-31 renal, over 100 µM; in the test on OVCAR-8 ovarian, over 100 µM; in the test on ACHN renal, over 100 µM; in the test on NCI-H522 lung, 41.8 µM.
With `Cc1ccc(NC(=S)NNC(=O)c2cc(-c3ccccc3)nc3ccccc23)cc1`, the TGI with NCI-H460 lung amounted to 47.9 µM; in the test with HT29 colon it was 55 µM; in the test with SF-268 CNS it was 34.8 µM; with SK-OV-3 ovarian, 30.3 µM; in the test with T-47D breast it was 21.3 µM; with DU-145 prostate it was 26.1 µM. Further, the TGI in the test with NCI-H23 lung is 27.4 µM; in the test with SN12C renal it was 31.8 µM; with K-562 leukemia it was over 100 µM; in the test with HCC-2998 colon it was 24.3 µM; in the test on HOP-92 NSCLC, 25.8 µM; in the test with SK-MEL-2 melanoma, 24 µM. In addition, the TGI stood at 48 µM with NCI/ADR-RES ovarian; 25.5 µM with UO-31 renal; 47.8 µM with OVCAR-8 ovarian; 31.3 µM in the test on ACHN renal; 39 µM in the test on NCI-H522 lung.
